Results on two molecules are retold here after article PMC8802628, “Selective activation of PFKL suppresses the phagocytic oxidative burst” (Cell, 2021).

The target in data set [1] is T1, GSDMD (Homo sapiens, UniProt P57764).
T1 sequence (P57764 1-484): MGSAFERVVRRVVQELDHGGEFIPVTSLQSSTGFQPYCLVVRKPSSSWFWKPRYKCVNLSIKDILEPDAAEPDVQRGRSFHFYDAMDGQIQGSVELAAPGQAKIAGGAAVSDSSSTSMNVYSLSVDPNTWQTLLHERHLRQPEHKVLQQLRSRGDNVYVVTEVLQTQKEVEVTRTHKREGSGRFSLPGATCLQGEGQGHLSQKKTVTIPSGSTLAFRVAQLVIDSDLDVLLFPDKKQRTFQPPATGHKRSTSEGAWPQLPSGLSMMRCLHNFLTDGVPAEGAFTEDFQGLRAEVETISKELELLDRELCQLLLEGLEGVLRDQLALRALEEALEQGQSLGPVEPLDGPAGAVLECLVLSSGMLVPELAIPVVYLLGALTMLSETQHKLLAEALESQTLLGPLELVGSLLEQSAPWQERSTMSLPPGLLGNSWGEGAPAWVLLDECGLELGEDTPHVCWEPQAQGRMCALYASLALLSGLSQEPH
Put plainly: Recombinant GSDMD cleavage by caspase-4. The class given is biochemical. The conditions noted are these: 10 μM. As for the experimental part: 1 μg recombinant GSDMD ([Aglietti et al., 2016]) was incubated with 10 μM LDC7559, 30 μM zVAD-fmk, or DMSO vehicle for 20 min, and then combined with 0.15 μg recombinant caspase-4 (750 mU; Abcam) in 20 μL of 50 mM HEPES, pH 7.2, 50 mM NaCl, 0.1% Chaps, 10 mM EDTA and 5% glycerol for 30 min at 37°C.

For data set [2], the target named is T1, GSDMD. Put plainly: TR-FRET liposome cargo release (GSDMD pore formation). The class given is biochemical. The following applies: 10 μM. As for the experimental part: GSDMD-dependent liposome cargo release was conducted by Confluence Discovery Technologies with modifications to the procedure described previously ([Aglietti et al., 2016]). Briefly, liposomes with an encapsulated cargo of europium-chelate conjugated biotin were formed from a lipid mixture of DOPC:DOPE (1:1). 0.15 mg/mL of cargo-loaded liposomes were mixed with 0.3 μM of recombinant GSDMD and incubated with 10 μM LDC7559, 10 μM disulfiram or DMSO vehicle. 0.15 μM caspase-4 and 50 nM streptavidin-Alexa Fluor 647 were added and TR-FRET was read over 1 h using a PHERAstar FSX Microplate Reader (BMG Labtech) equipped with a TR-FRET module.
A general note: TR-FRET usually uses a lanthanide donor and a delayed reading to cut background.

The test system of a further data set is PMNs. Briefly: ROS detection assay (ROS-Glo) in neutrophils. The class given is cell-based, human. The conditions noted are these: for PMA-induced ROS production: 50 nM PMA. The procedure:
ROS were measured using the ROS-Glo bioluminescent assay (Promega) for the direct detection of H2O2. Briefly, neutrophils (2 × 10^4) were plated in white 96-well plates (Greiner) in high glucose DMEM medium. Cells were cultured with DMSO vehicle, 0.5 μM NA-11, 5 μM LDC7559, 100 μM apocynin, or 200 μM thionicotinamide for 30 min, and then stimulated with 50 nM PMA or treated with 10 μg/mL zymosan beads, pre-opsonized in 20% serum for 30 min. Luminescence, after the addition of H2O2 substrate solution of 20 min, and then ROS-Glo detection solution for 20 min, was recorded on a plate reader (Envision).

A further data set deals with E. coli. Briefly: Phagocytosis assay: E. coli C.F.U. recovered from PMNs. It is filed as cell-based, human. The following applies: neutrophils pretreated 30 min. The procedure:
Neutrophils (1 × 10^6) were cultured in 6-well tissue in RPMI medium containing DMSO vehicle, 0.5 μM NA-11, 0.5 μM NA-4, 100 μM Apocynin or 100 μM thionicotinamide (TN) for 30 min. E. coli grown in LB broth overnight (2 mL) were opsonized with human serum (1 mL pooled from three donors) for 1 h at room temperature. Opsonized bacteria were washed with PBS, resuspended in LB broth to an OD600of 0.1 and then added to cultured neutrophils at an MOI of 1 for 30 min. Cells were washed with medium three times and then cultured with 300 μg/mL gentamicin for 2 h to kill any extracellular bacteria. Cells were then washed again, twice with medium and once with PBS. To release phagocytosed bacteria, neutrophils were lysed in 0.05% saponin in PBS. Lysates were passed through a 25’ gauge needed several times and the number of viable phagocytosed bacteria was determined by colony counting.

Entries after “also recorded” stand apart in the source; their conditions may differ.

Regarding `COc1ccccc1-c1cc2n(n1)Cc1ccc(NC(C)=O)cc1OC2` [LDC7559, reference compound], the “cleavage of recombinant GSDMD by caspase-4” value on GSDMD [1] is recorded as “did not inhibit cleavage of recombinant GSDMD by caspase-4”. Besides, at GSDMD [2], the “liposome permeabilization by GSDMD pore-forming fragment” value is recorded as “nor did it prevent the GSDMD pore-forming fragment from permeabilizing liposomes”. In addition, in the data set with PMNs, the “PMA-induced ROS production” value was “inhibited PMA-induced ROS production”.

`CC(=O)Nc1ccc2c(c1)OCc1cc(-c3ccccc3C#CCCCO)nn1C2` [NA-11]: in the data set on PMNs, the “PMA-induced ROS production” value is reported as “inhibited PMA-induced ROS production; also recorded: markedly suppressed, but did not completely prevent, PMA-induced ROS”. In the data set with PMNs (over 2 h), the “ROS production during phagocytosis of opsonized zymosan” value is on record as “kept ROS production at basal levels”. In the data set with E. coli, the “killing of phagocytosed bacteria (bacterial colonies recovered)” value was “produced more bacterial colonies than control neutrophils”.
